Key:
NCI-H716 cells = experiment: In vitro GLP-1 secretion in differentiated NCI-H716 cells (ELISA); assay type: cell-based, human; details: for fold induction at 100 µM: Homo sapiens, NCI-H716, 0.5 h, compound at 100 μM for 30 minutes, differentiated NCI-H716 cells, read-out: GLP-1 RELEASE NCI, fold of increase over DMSO
Method: (§1) GPR120/40 Activation: In Vitro GLP-1 Secretion
(§2) 2×10^5 STC-1 cells were seeded in a 12-plate and 24 hours later were treated with selected compounds. 1×10^6 NCI-H716 cells were differentiated in matrigel-coated 12-plate and treated 48 h hours later.
(§3) The day of the experiment, wells were washed once with 1 ml of PBS and then cells were stimulated with 0.5 ml of DMEM (w/o serum, w/o phenol-red) containing 30 μM of selected compounds in STC1 and 100 μM in differentiated NCIH716 for 30 minutes. DMSO has been used as negative control, α-linolenic acid (ALA) (endogenous agonist) as positive control. After stimulations, supernatants were collected, centrifuged at 4000 rpm for 4′ at 4° C., and used for the GLP1 detection by ELISA.

STC-1 cells = experiment: In vitro GLP-1 secretion in STC-1 cells (ELISA); assay type: cell-based, murine; details: for fold induction at 30 µM: Mus musculus, STC-1, 0.5 h, read-out: GLP-1 RELEASE STC-1, fold of increase over DMSO
Method: as §1, §2, §3

human GPR40 = target: T1, human GPR40 (Homo sapiens, UniProt O14842); experiment: In vitro Ca2+ mobilization, CHO-k1 cells stably expressing human GPR40; assay type: cell-based; details: for AC50: intracellular calcium, CHO-k1 cells expressing human GPR40, read-out: Ca2+ hGPR40 AC50
T1 construct: expressed in transfected cells; host or cells: CHO-k1
T1 sequence (O14842 whole entry): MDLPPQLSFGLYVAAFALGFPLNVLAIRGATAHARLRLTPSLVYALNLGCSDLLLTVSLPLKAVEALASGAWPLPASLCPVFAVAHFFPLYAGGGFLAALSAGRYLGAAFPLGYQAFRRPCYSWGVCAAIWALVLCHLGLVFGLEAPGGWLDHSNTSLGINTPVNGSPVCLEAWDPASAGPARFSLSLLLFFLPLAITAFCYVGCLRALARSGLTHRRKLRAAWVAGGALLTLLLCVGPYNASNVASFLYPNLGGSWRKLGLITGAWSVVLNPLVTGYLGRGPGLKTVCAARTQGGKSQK
Method: (§4) GPR120/40 Activation: In Vitro Ca^2+ Mobilization
(§5) The activation of GPR120/40 by all compounds was determined by measuring changes in intracellular calcium levels using a Ca^2+ sensitive fluorescent dye.
(§6) The experiments were performed using CHO-k1 cells stably expressing the human GPR120 or GPR40. Cells were seeded 10000 cells/well in 384-plates in complete medium and grown overnight at 37° C., 5% CO2. 24 h after seeding, cell culture media was removed and cells were loaded with the fluorescent Ca^2+ indicator (Fluo-8 NW dye in Tyrode's buffer). Dye-loaded cell plates were incubated for 1 h at room temperature under a yellow light sodium lamp.
(§7) Cell were treated with test compounds and controls at 10, 30 and 60 μM. The kinetic response was monitored over a period of 7 minutes (using FLIPRTETRA system). A second injection of 3× concentrated reference agonist at ˜EC50 were then administered to cells and the signal of the emitted fluorescence was measured over a period of additional 3 minutes. The agonist effect is expressed as a percentage of activation, with 100% activation being a result in which the Response Values of the test wells reach a level identical to the one of the Stimulator Controls (alpha linolenic acid reference agonist EC100). 0% activation is a result in which the Response Values of the test wells reach a level identical to the one of the Neutral Controls (assay buffer) in the AGO_KRV (Agonist Kinetic Response Value) response value.

human GPR120 = target: T2, human GPR120 (Homo sapiens, UniProt Q5NUL3); experiment: In vitro Ca2+ mobilization, CHO-k1 cells stably expressing human GPR120; assay type: cell-based; details: for AC50: intracellular calcium, CHO-k1 cells expressing human GPR120, read-out: Ca2+ hGPR120 AC50
T2 construct: expressed in transfected cells; host or cells: CHO-k1
T2 sequence (Q5NUL3 1-361): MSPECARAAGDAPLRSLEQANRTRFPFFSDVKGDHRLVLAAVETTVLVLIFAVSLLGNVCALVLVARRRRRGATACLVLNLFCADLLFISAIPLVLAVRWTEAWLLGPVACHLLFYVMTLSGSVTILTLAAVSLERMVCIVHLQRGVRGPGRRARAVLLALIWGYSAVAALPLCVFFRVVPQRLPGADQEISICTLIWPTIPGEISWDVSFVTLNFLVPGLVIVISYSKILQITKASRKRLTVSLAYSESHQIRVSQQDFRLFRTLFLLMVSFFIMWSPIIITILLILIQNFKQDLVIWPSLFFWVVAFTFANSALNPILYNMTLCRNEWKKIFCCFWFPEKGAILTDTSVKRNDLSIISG
Method: as §4, §5, §6, §7

[1] = compound at 30 μM for 30 minutes, STC-1 cells

Structure (SMILES)	agonistic activity on GPR40 (AC50 in the calcium mobilization assay), in words (human GPR40)	AC50 (human GPR40)	agonistic activity on GPR120 (AC50 in the calcium mobilization assay), in words (human GPR120)	AC50 (human GPR120)	GLP-1 secretion in NCI-H716 (human) cells, in words (NCI-H716 cells)	fold induction at 100 µM (NCI-H716 cells)	GLP-1 secretion in STC1 (murine) cells, in words (STC-1 cells)	fold induction at 30 µM (STC-1 cells; [1])	GLP-1 RELEASE STC-1, fold of increase over DMSO (STC-1 cells; [1])
Cc1cc(C(F)(F)F)cc(C)c1NS(=O)(=O)c1cccc(CCCCCCC(=O)O)c1 [Example 6, 7-(3-(N-(2,6-dimethyl-4-(trifluoromethyl)phenyl)sulfamoyl)phenyl)heptanoic acid]	low microMolar range	11.7 µM	low microMolar range	6 µM	efficacious	2.54 ± 0.52	efficacious	4.2 ± 0.45	
Cc1nsc(NS(=O)(=O)c2cccc(CCCCCCC(=O)O)c2)n1 [Example 17, 7-(3-(N-(3-methyl-1,2,4-thiadiazol-5-yl)sulfamoyl)phenyl)heptanoic acid]		13.9 µM		22.3 µM		2.19 ± 1.22		1.9 ± 0.51	
Cc1cc(N(C)C)cc(C)c1NS(=O)(=O)c1cccc(CCCCCCC(=O)O)c1 [Example 5, 7-(3-(N-(4-(dimethylamino)-2,6-dimethylphenyl)sulfamoyl)phenyl)heptanoic acid]		10.4 µM		7.9 µM		1.92 ± 0.14		4 ± 0.27	
Cc1nnc(NS(=O)(=O)c2cccc(CCCCCCC(=O)O)c2)s1 [Example 18, 7-(3-(N-(5-methyl-1,3,4-thiadiazol-2-yl)sulfamoyl)phenyl)heptanoic acid]		22.4 µM		27.8 µM		1.25 ± 0.8		1.98 ± 0.37	
O=C(O)CCCCCCc1cccc(S(=O)(=O)Nc2nsc(-c3ccccc3)n2)c1 [Example 16, 7-(3-(N-(5-phenyl-1,2,4-thiadiazol-3-yl)sulfamoyl)phenyl)heptanoic acid]		17.2 µM		25.9 µM		1.69 ± 0.14		1.31 ± 0.32	
Cc1cc(C)c(CNS(=O)(=O)c2cccc(CCCCCCC(=O)O)c2)c(C)c1 [Example 2, 7-(3-(N-(2,4,6-trimethylbenzyl)sulfamoyl)phenyl)heptanoic acid]	low microMolar range	11.2 µM	low microMolar range	7.09 µM	efficacious	2.1 ± 0.52	efficacious	3.2 ± 0.47	
COc1cc(C)c(NS(=O)(=O)c2cccc(CCCCCCC(=O)O)c2)c(C)c1 [Example 8, 7-(3-(N-(4-methoxy-2,6-dimethylphenyl)sulfamoyl)phenyl)heptanoic acid]		4.7 µM		11.7 µM		2.1 ± 0.08		1.7 ± 0.12	
Cc1n[nH]c(C)c1NS(=O)(=O)c1cccc(CCCCCCC(=O)O)c1 [Example 12, 7-(3-(N-(3,5-dimethyl-1H-pyrazol-4-yl)sulfamoyl)phenyl)heptanoic acid]		10.7 µM		13.1 µM		1.41 ± 0.36		1.04 ± 0.32	
Cc1cc(F)c(-c2ccccc2)cc1NS(=O)(=O)c1cccc(CCCCCCC(=O)O)c1 [Example 9, 7-(3-(N-(6-fluoro-4-methyl-[1,1′-biphenyl]-3-yl)sulfamoyl)phenyl)heptanoic acid]	low microMolar range	8.9 µM	low microMolar range	11.2 µM	efficacious	6.2	efficacious	14.5	14.5 ± 1.24 fold
Cc1nc(C)c(NS(=O)(=O)c2cccc(CCCCCCC(=O)O)c2)s1 [Example 13, 7-(3-(N-(2,4-dimethylthiazol-5-yl)sulfamoyl)phenyl)heptanoic acid]		23.9 µM		15.2 µM		1.03 ± 0.17		1.13 ± 0.15	

Further lines, with some results ahead:

agonistic activity on GPR40 (AC50 in the calcium mobilization assay), in words (human GPR40)	AC50 (human GPR40)	agonistic activity on GPR120 (AC50 in the calcium mobilization assay), in words (human GPR120)	AC50 (human GPR120)	Structure (SMILES)	GLP-1 secretion in NCI-H716 (human) cells, in words (NCI-H716 cells)	fold induction at 100 µM (NCI-H716 cells)	GLP-1 secretion in STC1 (murine) cells, in words (STC-1 cells)	fold induction at 30 µM (STC-1 cells; [1])	GLP-1 RELEASE STC-1, fold of increase over DMSO (STC-1 cells; [1])
	2.3 µM		6.1 µM	Cc1cc(OCCCS(C)(=O)=O)cc(C)c1NS(=O)(=O)c1cccc(CCCCCCC(=O)O)c1 [Example 35, 7-(3-(N-(2,6-dimethyl-4-(3(methylsulfonyl)propoxy)phenyl)sulfamoyl)phenyl)heptanoic acid]		4.2 ± 0.25		4.3 ± 0.61	
	7.9 µM		17 µM	Cc1nnc(C)n1NS(=O)(=O)c1cccc(CCCCCCC(=O)O)c1 [Example 21, 7-(3-(N-(3,5-dimethyl-4H-1,2,4-triazol-4-yl)sulfamoyl)phenyl)heptanoic acid]		2.57 ± 0.91		2.23 ± 0.98	
	12.1 µM		17.6 µM	Cc1noc(C)c1NS(=O)(=O)c1cccc(CCCCCCC(=O)O)c1 [Example 19, 7-(3-(N-(3,5-dimethylisoxazol-4-yl)sulfamoyl)phenyl)heptanoic acid]		2.24 ± 0.39		2.57 ± 0.56	
	8.2 µM		6.5 µM	Cc1nnc(NS(=O)(=O)c2cccc(CCCCCCC(=O)O)c2)[nH]1 [Example 20, 7-(3-(N-(5-methyl-4H-1,2,4-triazol-3-yl)sulfamoyl)phenyl)heptanoic acid]		3.31 ± 0.28		3.36 ± 0.37	
	8.4 µM		12.4 µM	O=C(O)CCCCCCc1cccc(S(=O)(=O)NC2=NC3CCCCC3N2)c1 (stereo not drawn) [Example 29, 7-(3-(N-(3a,4,5,6,7,7a-hexahydro-1H-benzo[d]imidazol-2-yl)sulfamoyl)phenyl)heptanoic Acid]		2.89 ± 0.81		1.12 ± 0.4	
	3.2 µM		9.3 µM	Cc1cc(O)cc(C)c1NS(=O)(=O)c1cccc(CCCCCCC(=O)O)c1 [Example 31, 7-(3-(N-(4-hydroxy-2,6-dimethylphenyl)sulfamoyl)phenyl)heptanoic acid]		3.7 ± 0.56		3.55 ± 0.87	
	11.7 µM		10.2 µM	O=C(O)CCCCCCc1cccc(S(=O)(=O)Nc2cc(-c3ccccc3)ns2)c1 [Example 22, 7-(3-(N-(3-phenylisothiazol-5-yl)sulfamoyl)phenyl)heptanoic acid]		3.71 ± 0.67		3.13 ± 1.26	

— patent US10508090B2, “Sulfonamides as GPR40- and GPR120-agonists” (DOMPÉ FARMACEUTICI S.P.A., priority 2016, dated 2019)
